# Assay results taken from ChEMBL document CHEMBL1201862, “PubChem BioAssay data set” (2004).
# The source made the active and inactive calls.
# Columns and labels:
# [1] = biological target: T1, Short transient receptor potential channel 4 (Mus musculus, UniProt Q9QUQ5); test: mouse TRPC4 channel activators, dose response, cell-based, HEK293 TRPC4/mu-opioid, Fluo-4 calcium (AID 434937); assay type: functional
# T1 sequence (Q9QUQ5 whole entry): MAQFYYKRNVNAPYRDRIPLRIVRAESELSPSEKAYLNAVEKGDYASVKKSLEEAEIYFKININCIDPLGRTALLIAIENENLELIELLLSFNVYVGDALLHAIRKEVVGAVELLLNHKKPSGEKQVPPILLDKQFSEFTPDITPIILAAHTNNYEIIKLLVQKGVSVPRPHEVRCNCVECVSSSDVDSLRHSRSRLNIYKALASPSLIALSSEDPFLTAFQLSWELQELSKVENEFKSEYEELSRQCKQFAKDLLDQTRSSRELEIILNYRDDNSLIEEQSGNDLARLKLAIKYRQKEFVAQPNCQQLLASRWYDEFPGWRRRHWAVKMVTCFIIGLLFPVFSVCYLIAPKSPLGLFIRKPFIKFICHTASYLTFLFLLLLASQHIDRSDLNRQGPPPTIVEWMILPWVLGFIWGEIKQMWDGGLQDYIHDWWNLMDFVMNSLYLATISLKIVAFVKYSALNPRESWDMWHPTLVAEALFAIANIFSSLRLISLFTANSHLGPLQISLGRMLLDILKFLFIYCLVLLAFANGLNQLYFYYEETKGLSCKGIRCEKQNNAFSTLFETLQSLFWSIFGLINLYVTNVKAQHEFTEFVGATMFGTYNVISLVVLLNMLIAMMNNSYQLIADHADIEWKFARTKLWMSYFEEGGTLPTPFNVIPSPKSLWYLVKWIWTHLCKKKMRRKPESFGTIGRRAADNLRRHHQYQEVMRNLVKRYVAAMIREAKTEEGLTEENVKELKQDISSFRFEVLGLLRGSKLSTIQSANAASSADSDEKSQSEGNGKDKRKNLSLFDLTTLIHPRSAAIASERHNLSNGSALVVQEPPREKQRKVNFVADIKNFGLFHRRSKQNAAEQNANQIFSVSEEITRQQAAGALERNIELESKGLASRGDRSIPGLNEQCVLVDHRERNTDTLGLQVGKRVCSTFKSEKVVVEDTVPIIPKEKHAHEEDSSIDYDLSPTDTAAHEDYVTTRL
# [2] = biological target: T2, Type-1 angiotensin II receptor (Homo sapiens, UniProt P30556); test: AT1 receptor agonists, dose response, selectivity assay for APJ receptor agonist project, cell-based, uHTS hits (AID 488865); assay type: functional;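 note: beta-arrestin recruitment to AT1 measured by enzyme fragment complementation luminescence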
# T2 sequence (P30556 whole entry): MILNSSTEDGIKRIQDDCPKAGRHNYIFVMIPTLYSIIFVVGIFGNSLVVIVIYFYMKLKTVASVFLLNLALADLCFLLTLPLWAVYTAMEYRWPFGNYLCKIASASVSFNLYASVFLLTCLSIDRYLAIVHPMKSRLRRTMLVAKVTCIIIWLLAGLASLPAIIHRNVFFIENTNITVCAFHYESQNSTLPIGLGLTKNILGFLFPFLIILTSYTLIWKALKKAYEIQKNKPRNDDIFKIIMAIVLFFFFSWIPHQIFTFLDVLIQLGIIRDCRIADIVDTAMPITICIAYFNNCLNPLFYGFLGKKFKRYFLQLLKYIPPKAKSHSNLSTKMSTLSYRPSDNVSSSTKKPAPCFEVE
# [3] = NIH-3T3 fibroblast cytotoxicity, dose response, cytotoxicity control, cell-based, fluorescence, Alamar Blue, secondary assay (AID 2327); assay type: functional;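 note: NIH-3T3 mouse fibroblasts cultured with fluconazole at 8 µg/mL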
# [4] = biological target: Peroxisome proliferator-activated receptor gamma/Nuclear receptor coactivator 1 (Homo sapiens, UniProt P37231); test: TR-FRET dose response biochemical High Throughput Screening assay for agonists of the steroid receptor coactivator 1 (SRC-1) recruitment by the peroxisome proliferator-activated receptor gamma (PPAR gamma): non-selective agonists. [Related pubchem assays (depositor defined):AID1300, AID1808, AID504735, AID631]; assay type: protein assay
# Chain of Peroxisome proliferator-activated receptor gamma/Nuclear receptor coactivator 1 (P37231 whole entry): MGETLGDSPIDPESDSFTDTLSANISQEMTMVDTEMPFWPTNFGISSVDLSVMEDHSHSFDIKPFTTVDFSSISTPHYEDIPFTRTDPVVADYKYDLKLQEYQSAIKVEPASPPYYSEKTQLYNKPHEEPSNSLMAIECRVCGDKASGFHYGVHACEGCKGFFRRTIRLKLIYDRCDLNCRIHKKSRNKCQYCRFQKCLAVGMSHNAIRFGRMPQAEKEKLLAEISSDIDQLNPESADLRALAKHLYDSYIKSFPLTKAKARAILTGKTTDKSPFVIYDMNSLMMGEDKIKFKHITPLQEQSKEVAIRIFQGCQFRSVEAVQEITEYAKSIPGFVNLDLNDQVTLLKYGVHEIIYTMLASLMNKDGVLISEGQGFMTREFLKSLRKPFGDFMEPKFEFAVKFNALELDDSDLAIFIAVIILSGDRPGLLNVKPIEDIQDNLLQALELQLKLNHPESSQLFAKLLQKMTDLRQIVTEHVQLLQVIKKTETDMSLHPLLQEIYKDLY
# Chain of Peroxisome proliferator-activated receptor gamma/Nuclear receptor coactivator 1 (Q15788 whole entry, further chain): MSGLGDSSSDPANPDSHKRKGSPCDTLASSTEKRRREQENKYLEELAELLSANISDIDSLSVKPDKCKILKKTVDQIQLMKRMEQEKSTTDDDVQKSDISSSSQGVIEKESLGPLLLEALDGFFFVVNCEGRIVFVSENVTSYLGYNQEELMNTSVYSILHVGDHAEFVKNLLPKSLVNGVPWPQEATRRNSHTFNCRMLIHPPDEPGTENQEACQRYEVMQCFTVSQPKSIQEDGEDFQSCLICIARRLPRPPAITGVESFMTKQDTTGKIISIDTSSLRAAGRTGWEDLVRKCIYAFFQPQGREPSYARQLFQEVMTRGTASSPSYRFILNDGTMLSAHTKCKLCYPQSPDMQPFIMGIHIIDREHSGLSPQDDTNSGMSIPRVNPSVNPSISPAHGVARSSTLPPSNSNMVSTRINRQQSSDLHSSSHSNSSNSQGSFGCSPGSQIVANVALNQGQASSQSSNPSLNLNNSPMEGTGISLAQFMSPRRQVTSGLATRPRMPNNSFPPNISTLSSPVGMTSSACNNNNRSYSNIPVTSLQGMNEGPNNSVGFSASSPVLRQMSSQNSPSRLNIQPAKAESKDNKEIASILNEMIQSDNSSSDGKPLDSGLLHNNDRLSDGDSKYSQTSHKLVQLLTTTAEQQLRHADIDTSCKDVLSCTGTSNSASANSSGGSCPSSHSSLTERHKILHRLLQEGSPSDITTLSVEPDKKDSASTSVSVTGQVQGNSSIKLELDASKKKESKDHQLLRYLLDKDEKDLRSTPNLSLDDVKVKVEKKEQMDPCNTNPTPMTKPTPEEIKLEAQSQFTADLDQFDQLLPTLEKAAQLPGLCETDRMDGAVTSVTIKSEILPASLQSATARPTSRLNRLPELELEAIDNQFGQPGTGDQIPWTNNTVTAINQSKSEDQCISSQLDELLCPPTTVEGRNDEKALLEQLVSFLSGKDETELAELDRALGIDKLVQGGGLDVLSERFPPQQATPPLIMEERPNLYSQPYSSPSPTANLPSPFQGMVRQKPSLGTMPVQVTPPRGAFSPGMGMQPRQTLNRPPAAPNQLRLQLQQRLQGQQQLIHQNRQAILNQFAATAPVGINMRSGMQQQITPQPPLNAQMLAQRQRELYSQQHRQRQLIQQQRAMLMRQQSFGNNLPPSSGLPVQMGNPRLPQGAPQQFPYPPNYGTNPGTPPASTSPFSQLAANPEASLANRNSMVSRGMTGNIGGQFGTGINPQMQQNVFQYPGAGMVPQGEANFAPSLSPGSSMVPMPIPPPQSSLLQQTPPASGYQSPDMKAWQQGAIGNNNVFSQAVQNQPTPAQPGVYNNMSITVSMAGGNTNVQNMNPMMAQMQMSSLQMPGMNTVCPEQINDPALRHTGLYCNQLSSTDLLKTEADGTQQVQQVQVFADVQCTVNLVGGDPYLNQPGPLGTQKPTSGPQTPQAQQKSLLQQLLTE
# [5] = biological target: Peroxisome proliferator-activated receptor gamma/Nuclear receptor coactivator 3 (Homo sapiens, UniProt P37231); test: TR-FRET dose response biochemical High Throughput Screening assay for agonists of the steroid receptor coactivator 3 (SRC-3) recruitment by the peroxisome proliferator-activated receptor gamma (PPAR gamma): non-selective agonists. [Related pubchem assays: 1301 (Confirmation screen.), 1048 (Primary screen.)]; assay type: functional
# [6] = C. albicans growth with fluconazole, confirmation, fluorescence, retest (AID 2467); assay type: functional, cell-based
# [7] = biological target: Peroxisome proliferator-activated receptor gamma/Nuclear receptor coactivator 2 (Homo sapiens, UniProt P37231); test: TR-FRET dose response biochemical High Throughput Screening assay for agonists of the steroid receptor coactivator 2 (SRC-2) recruitment by the peroxisome proliferator-activated receptor gamma (PPAR gamma): non-selective agonists. [Related pubchem assays: 1297, 1032 ]; assay type: functional
# Chain of Peroxisome proliferator-activated receptor gamma/Nuclear receptor coactivator 2 (P37231 whole entry): as the sequence (P37231 whole entry) above
# Chain of Peroxisome proliferator-activated receptor gamma/Nuclear receptor coactivator 2 (Q15596 whole entry, further chain): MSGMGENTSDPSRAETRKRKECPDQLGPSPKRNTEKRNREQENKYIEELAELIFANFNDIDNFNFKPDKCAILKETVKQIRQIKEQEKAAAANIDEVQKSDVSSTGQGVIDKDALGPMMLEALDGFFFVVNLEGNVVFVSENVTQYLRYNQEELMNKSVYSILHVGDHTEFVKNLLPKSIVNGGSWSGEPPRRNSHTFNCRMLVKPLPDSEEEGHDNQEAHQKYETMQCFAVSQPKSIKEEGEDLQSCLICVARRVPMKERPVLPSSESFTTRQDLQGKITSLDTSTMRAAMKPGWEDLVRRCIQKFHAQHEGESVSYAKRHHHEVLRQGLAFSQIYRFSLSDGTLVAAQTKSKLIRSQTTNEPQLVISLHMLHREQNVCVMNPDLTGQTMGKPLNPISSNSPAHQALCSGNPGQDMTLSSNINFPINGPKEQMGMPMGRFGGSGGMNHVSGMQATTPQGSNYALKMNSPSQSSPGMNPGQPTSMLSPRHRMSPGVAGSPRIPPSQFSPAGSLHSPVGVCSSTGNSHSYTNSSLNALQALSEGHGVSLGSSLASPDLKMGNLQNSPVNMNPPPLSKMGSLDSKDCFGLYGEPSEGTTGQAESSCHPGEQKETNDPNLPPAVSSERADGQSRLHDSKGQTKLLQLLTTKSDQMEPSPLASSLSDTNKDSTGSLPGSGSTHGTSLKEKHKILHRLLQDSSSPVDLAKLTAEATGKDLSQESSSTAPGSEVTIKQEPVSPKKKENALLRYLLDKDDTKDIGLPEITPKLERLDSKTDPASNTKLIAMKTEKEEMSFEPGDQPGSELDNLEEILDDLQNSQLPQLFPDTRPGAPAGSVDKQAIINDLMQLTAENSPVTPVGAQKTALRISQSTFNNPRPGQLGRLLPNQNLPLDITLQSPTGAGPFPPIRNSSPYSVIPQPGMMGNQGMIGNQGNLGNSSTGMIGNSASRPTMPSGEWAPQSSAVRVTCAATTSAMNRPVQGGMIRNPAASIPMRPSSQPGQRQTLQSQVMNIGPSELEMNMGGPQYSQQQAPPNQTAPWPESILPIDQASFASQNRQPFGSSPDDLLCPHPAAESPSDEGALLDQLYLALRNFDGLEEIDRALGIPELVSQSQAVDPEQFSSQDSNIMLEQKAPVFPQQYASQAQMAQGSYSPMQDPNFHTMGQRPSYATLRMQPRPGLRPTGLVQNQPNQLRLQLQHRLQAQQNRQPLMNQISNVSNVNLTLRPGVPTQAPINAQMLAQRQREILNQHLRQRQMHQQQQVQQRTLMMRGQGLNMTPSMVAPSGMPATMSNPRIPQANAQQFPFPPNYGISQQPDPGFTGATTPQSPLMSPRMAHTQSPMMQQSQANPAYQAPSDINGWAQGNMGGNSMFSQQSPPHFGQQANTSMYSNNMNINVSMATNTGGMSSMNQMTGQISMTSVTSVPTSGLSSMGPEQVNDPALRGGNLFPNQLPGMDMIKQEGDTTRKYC
# [8] = biological target: T3, Bcl-2-related protein A1 (Mus musculus, UniProt Q07440); assay type: functional;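 note: confirmatory dose–response counterscreen on Bfl-1, used to check hits from a UBC13 polyubiquitin inhibitor campaign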
# T3 sequence (Q07440 whole entry): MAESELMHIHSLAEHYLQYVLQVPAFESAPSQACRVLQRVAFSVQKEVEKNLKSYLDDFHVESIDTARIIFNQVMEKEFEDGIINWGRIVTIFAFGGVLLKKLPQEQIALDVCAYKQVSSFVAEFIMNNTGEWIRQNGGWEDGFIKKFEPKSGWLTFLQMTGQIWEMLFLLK
# [9] = biological target: T4, Ubiquitin-conjugating enzyme E2 N (Homo sapiens, UniProt P61088); assay type: functional
# T4 sequence (P61088 whole entry): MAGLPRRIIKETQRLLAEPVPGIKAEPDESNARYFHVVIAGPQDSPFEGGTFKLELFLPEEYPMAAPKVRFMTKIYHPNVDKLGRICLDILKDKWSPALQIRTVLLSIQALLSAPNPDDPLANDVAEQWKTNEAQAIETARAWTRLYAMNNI
# [10] = biological target: T4, Ubiquitin-conjugating enzyme E2 N; assay type: functional; remark: listed apart in the source
# [11] = biological target: T5, Delta-type opioid receptor (Homo sapiens, UniProt P41143); test: HTS Image-Based Screen for Antagonists of the DOR Receptor. [Related pubchem assays (depositor defined):AID1777, AID1785, AID1786, AID2133]; assay type: functional
# T5 sequence (P41143 whole entry): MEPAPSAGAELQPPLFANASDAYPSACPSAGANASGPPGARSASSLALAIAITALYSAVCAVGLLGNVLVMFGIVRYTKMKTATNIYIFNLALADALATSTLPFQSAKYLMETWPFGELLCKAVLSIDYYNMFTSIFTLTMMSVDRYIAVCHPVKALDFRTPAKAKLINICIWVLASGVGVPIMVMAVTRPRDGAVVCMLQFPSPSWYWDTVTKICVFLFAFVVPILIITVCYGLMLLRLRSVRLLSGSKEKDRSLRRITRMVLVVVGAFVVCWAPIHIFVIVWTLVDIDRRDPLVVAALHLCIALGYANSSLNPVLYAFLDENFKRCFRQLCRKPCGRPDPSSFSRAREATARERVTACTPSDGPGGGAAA
# [12] = biological target: Mu-type opioid receptor (Homo sapiens, UniProt P35372); test: HTS Image-Based Screen for Agonists of the MOR Receptor. [Related pubchem assays (depositor defined):AID1777, AID1785, AID1786, AID2133]; assay type: functional;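 note: imaging of beta-arrestin GFP recruitment into spots after receptor activation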
# Chain of Mu-type opioid receptor (P35372 whole entry): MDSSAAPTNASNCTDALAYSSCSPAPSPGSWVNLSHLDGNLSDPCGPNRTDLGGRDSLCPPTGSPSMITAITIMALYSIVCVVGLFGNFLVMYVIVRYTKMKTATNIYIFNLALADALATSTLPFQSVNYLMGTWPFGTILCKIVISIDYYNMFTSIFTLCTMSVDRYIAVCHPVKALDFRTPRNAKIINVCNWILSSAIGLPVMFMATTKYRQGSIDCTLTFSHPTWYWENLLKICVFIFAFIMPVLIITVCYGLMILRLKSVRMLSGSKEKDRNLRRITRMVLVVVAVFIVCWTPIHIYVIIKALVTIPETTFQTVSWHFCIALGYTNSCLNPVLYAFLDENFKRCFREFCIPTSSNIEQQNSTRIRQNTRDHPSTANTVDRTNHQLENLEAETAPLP
# [13] = test system: Streptococcus sp. 'group A'; test: growth inhibition of control SK(-) GAS strain, dose response, counter-screen for streptokinase expression inhibitor project, luminescence, kanamycin, BacTiterGlo, confirmation (AID 1900); assay type: functional, organism-based
# [14] = biological target: T5, Delta-type opioid receptor; test: HTS Image-Based Screen for Agonists of the DOR Receptor. [Related pubchem assays (depositor defined):AID1777, AID1786, AID2133]; assay type: functional
# [15] = biological target: T6, Streptokinase A (Streptococcus pyogenes serotype M1, UniProt P10520); test: S. pyogenes streptokinase expression inhibitors, potency, dose response, plasminogen activation absorbance, OD405 (AID 1914); assay type: functional, Streptococcus pyogenes M1 GAS;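 note: secreted streptokinase activity via plasminogen activation per viability signal from cell pellet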
# T6 sequence (P10520 whole entry): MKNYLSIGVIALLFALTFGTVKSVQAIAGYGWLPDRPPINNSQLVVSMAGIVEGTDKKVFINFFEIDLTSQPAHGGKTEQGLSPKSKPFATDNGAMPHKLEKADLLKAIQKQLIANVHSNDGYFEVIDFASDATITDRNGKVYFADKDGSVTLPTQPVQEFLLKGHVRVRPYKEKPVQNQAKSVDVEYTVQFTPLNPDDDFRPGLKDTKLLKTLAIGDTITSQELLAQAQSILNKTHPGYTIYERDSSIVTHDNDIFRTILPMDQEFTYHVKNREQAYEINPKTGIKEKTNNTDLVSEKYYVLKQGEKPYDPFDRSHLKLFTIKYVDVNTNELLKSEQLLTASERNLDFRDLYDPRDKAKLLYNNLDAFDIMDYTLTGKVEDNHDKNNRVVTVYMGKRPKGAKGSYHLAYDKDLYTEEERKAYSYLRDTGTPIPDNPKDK
# [16] = biological target: T7, Kappa-type opioid receptor (Homo sapiens, UniProt P41145); assay type: functional
# T7 sequence (P41145 whole entry): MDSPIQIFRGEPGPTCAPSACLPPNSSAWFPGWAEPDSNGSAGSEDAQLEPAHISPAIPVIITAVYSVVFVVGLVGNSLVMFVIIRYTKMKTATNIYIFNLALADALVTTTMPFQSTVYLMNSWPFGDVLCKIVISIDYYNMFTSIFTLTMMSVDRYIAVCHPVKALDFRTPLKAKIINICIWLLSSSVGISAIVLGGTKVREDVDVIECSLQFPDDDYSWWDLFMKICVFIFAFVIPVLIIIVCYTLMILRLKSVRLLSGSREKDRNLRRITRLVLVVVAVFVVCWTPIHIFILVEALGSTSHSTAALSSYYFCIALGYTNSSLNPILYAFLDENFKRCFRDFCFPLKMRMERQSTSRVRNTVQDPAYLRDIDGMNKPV
# [17] = biological target: Beta-galactosidase (Escherichia coli, UniProt Q8VNN2); assay type: functional
# [18] = biological target: T7, Kappa-type opioid receptor; assay type: functional; remark: listed apart in the source
# [19] = test system: Streptococcus; test: Group A Streptococcus viability loss, dose response, counter-screen for streptokinase expression inhibitor project, luminescence, BacTiterGlo (AID 1915); assay type: functional, organism-based;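 note: potency for reduction of bacterial viability or growth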
# [20] = biological target: T8, Glutathione-S-transferase (Schistosoma japonicum, UniProt Q26513); test: biotin-GST/anti-GST TR-FRET signal inhibitors, dose response, artefact control for Vif-APOBEC3G degradation inhibitor project, biochemical (AID 1117362); assay type: functional
# T8 sequence (Q26513 whole entry): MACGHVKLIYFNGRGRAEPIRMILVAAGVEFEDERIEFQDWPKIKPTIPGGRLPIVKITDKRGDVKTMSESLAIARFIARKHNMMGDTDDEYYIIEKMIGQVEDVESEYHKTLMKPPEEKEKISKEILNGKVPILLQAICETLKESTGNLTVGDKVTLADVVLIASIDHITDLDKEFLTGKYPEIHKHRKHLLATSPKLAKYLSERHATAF
# [21] = biological target: T9, Mannose-6-phosphate isomerase (Homo sapiens, UniProt P34949); test: PMI enzyme inhibitors, confirmation, biochemical, fluorescence intensity (AID 1535)
# T9 sequence (P34949 whole entry): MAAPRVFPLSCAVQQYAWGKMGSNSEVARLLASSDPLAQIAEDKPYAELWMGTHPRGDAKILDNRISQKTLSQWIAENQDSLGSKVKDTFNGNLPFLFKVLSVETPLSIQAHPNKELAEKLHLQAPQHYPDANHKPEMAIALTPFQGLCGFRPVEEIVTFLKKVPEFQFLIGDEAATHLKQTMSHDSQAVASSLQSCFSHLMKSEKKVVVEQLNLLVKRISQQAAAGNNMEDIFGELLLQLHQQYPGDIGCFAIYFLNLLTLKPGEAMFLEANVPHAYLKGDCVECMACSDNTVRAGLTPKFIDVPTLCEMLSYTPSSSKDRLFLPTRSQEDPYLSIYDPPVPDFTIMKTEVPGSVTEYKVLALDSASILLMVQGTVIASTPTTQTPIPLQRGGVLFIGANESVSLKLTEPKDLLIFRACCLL
# [22] = biological target: T10, Phosphomannomutase 2 (Homo sapiens, UniProt O15305); test: Counter screen SAR assay for PMM2 inhibitors via a fluorescence intensity assay. [Related pubchem assays (depositor defined):AID1545, AID1574]
# T10 sequence (O15305 whole entry): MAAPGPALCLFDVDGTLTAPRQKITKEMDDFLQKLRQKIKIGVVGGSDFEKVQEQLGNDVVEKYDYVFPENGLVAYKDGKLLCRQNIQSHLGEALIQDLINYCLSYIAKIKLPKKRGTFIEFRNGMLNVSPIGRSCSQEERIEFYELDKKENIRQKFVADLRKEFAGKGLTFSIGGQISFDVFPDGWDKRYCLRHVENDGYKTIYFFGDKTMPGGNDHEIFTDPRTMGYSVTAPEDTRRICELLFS
# [23] = biological target: T11, Phosphoethanolamine/phosphocholine phosphatase (Homo sapiens, UniProt Q8TCT1); test: SAR assay for compounds that inhibit PHOSPHO1. [Related pubchem assays (depositor defined):AID1545, AID1565, AID1574]
# T11 sequence (Q8TCT1 whole entry): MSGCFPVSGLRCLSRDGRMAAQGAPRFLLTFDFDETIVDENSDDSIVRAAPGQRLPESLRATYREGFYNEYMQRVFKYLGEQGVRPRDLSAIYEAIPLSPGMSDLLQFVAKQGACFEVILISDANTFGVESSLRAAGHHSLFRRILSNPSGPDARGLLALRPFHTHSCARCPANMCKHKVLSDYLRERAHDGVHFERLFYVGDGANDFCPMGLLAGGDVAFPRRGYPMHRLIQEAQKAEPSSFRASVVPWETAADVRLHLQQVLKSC
compound,measurement,setting,value
Cn1cc[n+](C)c1P(=S)(c1ccccc1)c1ccccc1,EC50,[1],0.237 µM (active)
CCOc1cc2[nH]c(=S)n(CCN3CCCCC3CC)c(=O)c2cc1OCC (stereo unspecified),EC50,[2],> 100 µM (inactive)
CCn1c(=S)[nH]c2scc(-c3cccs3)c2c1=O,EC50,[3],> 160 µM (inactive)
same,EC50,[4],8.82 µM (active)
same,EC50,[5],> 79.4 µM (not active)
same,EC50,[6],1.23 µM (active)
same,EC50,[7],11.1 µM (not active)
Cc1cc(-c2ccc(Br)s2)nc(-n2cccc2)n1,EC50,[4],> 79.4 µM (inactive)
same,EC50,[5],> 79.4 µM (not active)
same,EC50,[7],19.3 µM (not active)
CCOc1ccc(NS(=O)(=O)c2cc(C(=O)NCCCN3CCOCC3)ccc2C)cc1,IC50,[8],> 20 µM (inactive)
same,IC50,[9],9.23 µM (active)
same,IC50,[10],10.5 µM (active)
CCCc1nc2oc3c(Cl)ncnc3c2c2c1CCCC2,IC50,[11],> 32 µM (inactive)
same,EC50,[12],> 32 µM (inactive)
same,EC50,[13],> 150 µM (not active)
same,EC50,[14],> 32 µM (inactive)
same,EC50,[15],> 150 µM (not active)
same,IC50,[16],4.64 µM (active)
same,EC50,[17],> 31.5 µM (inactive)
same,IC50,[18],> 32 µM
same,EC50,[19],> 150 µM (not active)
Cc1ccc(C)n1-c1ccc(-c2nnc3n2CCCCC3)s1,EC50,[4],> 79.4 µM (inactive)
same,EC50,[5],> 79.4 µM (not active)
same,EC50,[7],38.7 µM (not active)
same,IC50,[20],86.7 µM (active)
O=c1c2ccc(F)cc2sn1-c1ccc(Cl)c(Cl)c1,IC50,[21],> 50 µM (inactive)
same,IC50,[22],> 100 µM (inactive)
same,IC50,[23],> 100 µM (inactive)
O=C(CC1C(=O)NCCN1Cc1cccc(Oc2ccccc2)c1)NCCc1ccccn1 (stereo unspecified),EC50,[1],4.73 µM (active)
CCC(c1nnnn1CCOC)N(Cc1ccc(C)cc1)Cc1cc2cc(OC)ccc2[nH]c1=O (stereo unspecified),EC50,[2],> 100 µM (inactive)
